For four compounds, IC50 results are on record in patent publication US7417058B2, “Pharmaceutically active benzsulfonamide derivatives as inhibitors of protein junkinases” (Laboratoires Serono S.A., priority 2000, dated 2008).

One assay has as its target GST-JNK3 (Homo sapiens, UniProt P53779). Description: JNK3 in vitro assay (33P incorporation into c-Jun, SPA). The class given is biochemical. The note with it: recombinant pre-activated GST-JNK3, biotinylated GST-c-Jun, 2 μM 33γ-ATP, 120 min RT. As to the method: (§1) JNK2 and -3 in vitro Assays:
(§2) The phosphorylation of c-jun by JNK2 or JNK3 may be followed by monitoring the incorporation of ^33P into c-jun following the protocol below. The inhibitory activity of the compounds according to formula I, in respect of c-jun phosphorylation through JNK, is determined by calculating the phosphorylation activity of a JNK in the presence or absence of the test compounds according to formula I.
(§3) JNK3 and/or -2 assays are performed in 96 well MTT plates: incubation of 0.5 μg of recombinant, pre-activated GST-JNK3 or GST-JNK2 with 1 μg of recombinant, biotinylated GST-c-Jun and 2 μM ^33γ-ATP (2 nCi/μl), in the presence or absence of compounds according to formula I and in a reaction volume of 50 μl containing 50 mM Tris-HCl, pH 8.0; 10 mM MgCl2; 1 mM Dithiothreitol, and 100 μM NaVO4. The incubation is performed for 120 min. at R.T and stopped upon addition of 200 μl of a solution containing 250 μg of Streptavidine-coated SPA beads (Amersham, Inc.)*, 5 mM EDTA, 0.1% Triton X-100 and 50 μM ATP, in phosphate saline buffer.
(§4) After incubation for 60 minutes at RT, beads are sedimented by centrifugation at 1500×g for 5 minutes, resuspended in 200 μl of PBS containing 5 mM EDTA, 0.1% Triton X-100 and 50 μM ATP and the radioactivity measured in a scintillation β counter, following sedimentation of the beads as described above. By replacing biotinylated GST-c Jun with biotinylated GST-1ATF2 or biotinylated myelin basic protein, this assay may also be used to measure inhibition of pre-activated p38 and ERK MAP Kinases, respectively.
(§5) The values indicated in respect of JNK2 and 3 refer to the IC50 (μM), i.e. the amount necessary to achieve 50% inhibition either of JNK3 or JNK2.

Another assay deals with GST-JNK2 (Homo sapiens, UniProt P45984). Briefly: JNK2 in vitro assay (33P incorporation into c-Jun, SPA). The note with it: recombinant pre-activated GST-JNK2, biotinylated GST-c-Jun, 2 μM 33γ-ATP, 120 min RT. The class given is biochemical. As to the method: as §1, §2, §3, §4, §5
Sequence of GST-JNK2 (P45984 whole entry): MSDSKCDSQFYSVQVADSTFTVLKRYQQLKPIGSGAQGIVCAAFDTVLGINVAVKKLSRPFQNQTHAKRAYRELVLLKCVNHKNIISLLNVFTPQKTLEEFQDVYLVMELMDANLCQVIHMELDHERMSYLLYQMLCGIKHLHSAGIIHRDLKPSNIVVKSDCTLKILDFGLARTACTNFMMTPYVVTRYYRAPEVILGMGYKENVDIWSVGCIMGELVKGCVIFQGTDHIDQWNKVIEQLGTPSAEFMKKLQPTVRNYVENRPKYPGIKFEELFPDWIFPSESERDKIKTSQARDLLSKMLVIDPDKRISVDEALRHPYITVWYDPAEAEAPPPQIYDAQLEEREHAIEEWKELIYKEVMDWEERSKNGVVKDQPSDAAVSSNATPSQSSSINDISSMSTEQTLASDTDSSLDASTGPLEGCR

Sequence of GST-JNK3 (P53779 whole entry): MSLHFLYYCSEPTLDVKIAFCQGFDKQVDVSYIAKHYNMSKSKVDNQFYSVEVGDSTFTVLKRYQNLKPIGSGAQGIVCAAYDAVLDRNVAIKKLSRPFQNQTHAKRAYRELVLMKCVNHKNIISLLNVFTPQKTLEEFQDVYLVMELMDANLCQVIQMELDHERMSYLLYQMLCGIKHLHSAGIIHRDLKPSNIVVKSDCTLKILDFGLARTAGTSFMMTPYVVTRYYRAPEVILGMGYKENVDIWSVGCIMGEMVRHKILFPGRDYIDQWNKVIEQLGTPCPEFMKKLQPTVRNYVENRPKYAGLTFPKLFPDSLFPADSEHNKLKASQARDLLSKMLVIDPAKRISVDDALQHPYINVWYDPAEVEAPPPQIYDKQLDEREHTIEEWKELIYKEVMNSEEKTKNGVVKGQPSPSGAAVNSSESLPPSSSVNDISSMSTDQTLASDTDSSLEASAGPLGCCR

For orientation: IC50 means the concentration at which inhibition is half-maximal. `O=C(NCc1cccc(S(=O)(=O)N2CCC(Nc3cccc(S(=O)(=O)C(F)(F)F)c3)CC2)c1)c1ccc(Cl)cc1` [Example 3, 4-chloro-N-{3-[(4-{3-[(trifluoromethyl)sulfonyl]anilino}-1-piperidinyl)sulfonyl]benzyl}benzamide]: the IC50 on GST-JNK3 is under 0.4 µM; at GST-JNK2 it was under 0.7 µM.

Regarding `O=C(NCc1ccc(S(=O)(=O)N2CCC(NCCc3cccc(C(F)(F)F)c3)CC2)cc1)c1ccc(Cl)cc1` [Example 11, 4-chloro-N-(4-{[4-({2-[3-(trifluoromethyl)phenyl]ethyl}amino)-1-piperidinyl]sulfonyl}benzyl)benzamide], the IC50 at GST-JNK3 was under 0.4 µM; on GST-JNK2, under 0.7 µM.

On to `CCCCCCNC1CCN(S(=O)(=O)c2ccc(NC(=O)c3ccc(Cl)cc3)cc2)C1` (centres unmarked) [Example 28, 4-chloro-N-(4-{[3-(hexylamino)-1-pyrrolidinyl]sulfonyl}phenyl)benzamide], for which the IC50 was under 0.4 µM on GST-JNK3 and under 0.7 µM at GST-JNK2.

As to `O=C(NCc1ccc(S(=O)(=O)N2CCC(NCCc3cccc(C(F)(F)F)c3)C2)cc1)c1ccc(Cl)cc1` (centres unmarked) [Example 31, 4-chloro-N-(4-{[3-({2-[3-(trifluoromethyl)phenyl]ethyl)amino)-1-pyrrolidinyl]sulfonyl}benzyl)benzamide], the IC50 at GST-JNK3 was under 0.4 µM; at GST-JNK2 it was under 0.7 µM.
